From patent US8546608B2, “Proteasome inhibitors and methods of using the same” (Cephalon, Inc., priority 2003, dated 2013)

Experiments:
[1] = biological target: T1, 20S Human Erythrocyte Proteasome (HEP) (Homo sapiens, UniProt P20618+P28074); experiment: Chymotrypsin-like activity of 20S Human Erythrocyte Proteasome (HEP), IC50 determination; assay type: biochemical; conditions: assay of Example C, inhibition of HEP
T1 construct: 20S Human Erythrocyte Proteasome (HEP), purchased from Immatics Biotechnologies Inc; purchased Immatics Biotechnologies Inc., Tübingen, Germany; host or cells: human erythrocytes (natural source)
Procedure, shortened: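 20S proteasome at 0.2 μg/mL (about 0.6 nM catalytic sites) in 20 mM Tris with 0.04% SDS, preincubated 15 min at 37° C with inhibitor before Suc-LLVY-AMC (100 μM final). AMC fluorescence read in the linear range; triplicates, IC50 from concentration series.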

[2] = biological target: T2, proteasome in Molt-4 cells (human leukemia) (Homo sapiens, UniProt P20618+P28074); assay type: cell-based; conditions: assay of Example E, inhibition of MOLT4; read-out: MOLT4 (EC50)
T2 sequence (P28074 60-263): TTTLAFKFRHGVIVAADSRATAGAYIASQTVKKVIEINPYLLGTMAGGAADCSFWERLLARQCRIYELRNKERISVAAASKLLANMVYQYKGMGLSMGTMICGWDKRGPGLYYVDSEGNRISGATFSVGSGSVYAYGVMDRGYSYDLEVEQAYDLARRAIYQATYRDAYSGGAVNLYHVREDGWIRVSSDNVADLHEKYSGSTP
T2 sequence (P20618 29-241): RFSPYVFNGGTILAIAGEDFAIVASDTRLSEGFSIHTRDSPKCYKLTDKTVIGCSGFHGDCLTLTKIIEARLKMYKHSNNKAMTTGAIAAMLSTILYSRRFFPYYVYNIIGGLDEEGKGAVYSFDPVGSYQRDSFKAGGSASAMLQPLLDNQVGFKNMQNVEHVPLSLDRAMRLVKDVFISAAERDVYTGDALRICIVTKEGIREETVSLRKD
Procedure, shortened: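 Intact Molt-4 cells (6×10^6 cells/mL) in HEPES-buffered saline were preincubated with inhibitor 15 min at 37 °C, then given cell-permeable MeOSuc-FLF-AFC at 25 μM final.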

| IC50 [1] [nM] | EC50 [2] [nM] | Structure (SMILES) |
| --- | --- | --- |
| < 10 | > 10000 | Cc1nc(C)c(C(=O)N[C@@H](CCCNC(=N)N[N+](=O)[O-])C(=O)N[C@@H](CC(C)C)B(O)O)s1 [E.2.27, Boronic acid, [(1R)-1-[[(2S)-5-[[imino(nitroamino)methyl]amino]-2-[(2,4-dimethylthiazole-5-carbonyl)amino]-1-oxopentyl]amino]-3-methylbutyl]] |
| < 10 | 200 to 2000 | CCCCc1ccc(C(=O)N[C@@H](CC(N)=O)C(=O)N[C@@H](CC(C)C)B(O)O)cc1 [E.1.28, Boronic acid, [(1R)-1-[[(2S)-3-carbamoyl-2-[4-butyl(benzoyl)amino]-1-oxopropyl]amino]-3-methylbutyl]] |
| < 10 | 200 to 2000 | CCCCCCCCC(=O)N[C@@H](CCCNC(=N)N[N+](=O)[O-])C(=O)N[C@@H](CC(C)C)B(O)O [E.2.9, Boronic acid, [(1R)-1-[[(2S)-5-[[imino(nitroamino)methyl]amino]-2-[(nonanoyl)amino]-1-oxopentyl]amino]-3-methylbutyl]] |
| < 10 | > 10000 | CC(C)C[C@H](NC(=O)[C@H](CCCNC(=N)N[N+](=O)[O-])NC(=O)CCCOc1ccccc1)B(O)O [E.2.42, Boronic acid, [(1R)-1-[[(2S)-5-[[imino(nitroamino)methyl]amino]-2-[(4-phenoxybutanoyl)amino]-1-oxopentyl]amino]-3-methylbutyl]] |
| < 10 | > 10000 | CC(C)C[C@H](NC(=O)[C@H](CCCNC(=N)N[N+](=O)[O-])NC(=O)CCN1C(=O)c2ccccc2C1=O)B(O)O [E.1.5] |
| < 10 | 200 to 2000 | CC(C)C[C@H](NC(=O)[C@H](CCCNC(=N)N[N+](=O)[O-])NC(=O)Cc1cccc(Cl)c1)B1O[C@@H]2C[C@@H]3C[C@@H](C3(C)C)[C@]2(C)O1 [D.3.128, 2-(3-Chlorophenyl)acetamide,N-[(1S)-1-[[[(1R)-1-[(3aS,4S,6S,7aR)-hexahydro-3a,5,5-trimethyl-4,6-methano-1,3,2-benzodioxaborol-2-yl]-3-methylbutyl]amino]carbonyl]-4-[[imino(nitroamino)methyl]amino]butyl]] |
| < 10 | < 200 | CCCCCCCCCCC(=O)N[C@@H](CCCNC(=N)N[N+](=O)[O-])C(=O)N[C@@H](CC(C)C)B(O)O [D.7.41, Boronic acid, [(1R)-1-[[(2S)-5-[[imino(nitroamino)methyl]amino]-2-[(undecanoyl)amino]-1-oxopentyl]amino]-3-methylbutyl]] |
| < 10 | < 200 | CC(C)C[C@H](NC(=O)[C@@H](NC(=O)CCCc1ccccc1)[C@@H](C)O)B1O[C@@H]2C[C@@H]3C[C@@H](C3(C)C)[C@]2(C)O1 [D.3.176, 4-Phenylbutanamide,N-[(1S,2R)-1-[[[(1R)-1-[(3aS,4S,6S,7aR)-hexahydro-3a,5,5-trimethyl-4,6-methano-l53.2-benzodioxaborol-2-yl]-3-methylbutyl]amino]carbonyl]-2-hydroxypropyl]] |
| < 10 | < 200 | CC(C)C[C@H](NC(=O)[C@H](CCCNC(=N)N[N+](=O)[O-])NC(=O)CCc1ccc(C(C)C)cc1)B1O[C@@H]2C[C@@H]3C[C@@H](C3(C)C)[C@]2(C)O1 [D.3.190, 3-[4-(2-Propyl)phenyl]propanamide, N-[(1S)-1-[[[(1R)-1-[(3aS,4S,6S,7aR)-hexahydro-3a,5,5-trimethyl-4,6-methano-1,3,2-benzodioxaborol-2-yl]-3-methylbutyl]amino]carbonyl]-4-[[imino(nitroamino)methyl]amino]butyl]] |
| < 10 | < 200 | CCCCc1ccc(C(=O)N[C@@H](CNC(=O)c2ccc(C)cc2)C(=O)N[C@@H](CC(C)C)B(O)O)cc1 [E.5.5] |
| < 10 | < 200 | CC(C)C[C@H](NC(=O)[C@@H](NC(=O)c1ccc(-c2cccnc2)cc1)[C@@H](C)O)B(O)O [E.4, Boronic Acid, [(1R)-1-[[(2S,3R)-3-hydroxy-2-[[4-(3-pyridyl)benzoyl]amino]-1-oxobutyl]amino]-3-methylbutyl]] |
| < 10 | 2000 to 10000 | CC(C)C[C@H](NC(=O)[C@H](CCCNC(=N)N[N+](=O)[O-])NC(=O)C1CC2CCC1C2)B(O)O (stereo partly drawn) [E.2.25, Boronic acid, [(1R)-1-[[(2S)-5-[[imino(nitroamino)methyl]amino]-2-[(bicyclo[2.2.1]heptane-2-carbonyl)amino]-1-oxopentyl]amino]-3-methylbutyl]] |
| < 10 | < 200 | CCCCCCCCCC(=O)N[C@@H](CNS(=O)(=O)c1ccc(F)cc1)C(=O)N[C@@H](CC(C)C)B(O)O [E.5.12, Boronic acid, [(1R)-1-[[(2S)-3-[4-fluoro-benzenesulfonamide]-2-[(decanoyl)amino]-1-oxopropyl]amino]-3-methylbutyl]] |
| < 10 | < 200 | CC(C)C[C@H](NC(=O)[C@H](CCCNC(=N)N[N+](=O)[O-])NC(=O)CCCCCCCCC#N)B1O[C@@H]2C[C@@H]3C[C@@H](C3(C)C)[C@]2(C)O1 [D.3.186, 9-Cyanononamide, N-[(1S)-1-[[[(1R)-1-[(3aS,4S,6S,7aR)-hexahydro-3a,5,5-trimethyl-4,6-methano-1,3,2-benzodioxaborol-2-yl]-3-methylbutyl]amino]carbonyl]-4-[[imino(nitroamino)methyl]amino]butyl]] |
| < 10 | 200 to 2000 | CCCCC[C@H]1CC[C@H](C(=O)N[C@@H](CCCNC(=N)N[N+](=O)[O-])C(=O)N[C@@H](CC(C)C)B(O)O)CC1 [E.2.6, Boronic acid, [(1R)-1-[[(2S)-5-[[imino(nitroamino)methyl]amino]-2-[(trans-4-pentylcyclohexanecarbonyl)amino]-1-oxopentyl]amino]-3-methylbutyl]] |
| < 10 | 200 to 2000 | CC(C)C[C@H](NC(=O)[C@H](CCCNC(=N)N[N+](=O)[O-])NC(=O)CCSc1ccc2ccccc2c1)B(O)O [E.2.48, Boronic acid, [(1R)-1-[[(2S)-5-[[imino(nitroamino)methyl]amino]-2-[[3-(naphthalen-2-ylsulfanyl)-propanoyl]amino]-1-oxopentyl]amino]-3-methylbutyl]] |
| < 10 | < 200 | CCCCc1ccc(C(=O)N[C@@H](CNC(=O)C2CC2)C(=O)N[C@@H](CC(C)C)B2O[C@@H]3C[C@@H]4C[C@@H](C4(C)C)[C@]3(C)O2)cc1 [D.24.11] |
| < 10 | > 10000 | CCCCN1CCC(CCCC(=O)N[C@@H](CCCNC(=N)N[N+](=O)[O-])C(=O)N[C@@H](CC(C)C)B2O[C@@H]3C[C@@H]4C[C@@H](C4(C)C)[C@]3(C)O2)CC1 [D.2.2, 4-(1-Butyl-piperidin-4-yl)-butanamide,N-[(1S)-1-[[[(1R)-1-[(3aS,4S,6S,7aR)-hexahydro-3a,5,5-trimethyl-4,6-methano-1,3,2-benzodioxaborol-2-yl]-3-methylbutyl]amino]carbonyl]-4-[[imino(nitroamino)methyl]amino]butyl]] |
| < 10 | < 200 | CCCCc1ccc(C(=O)N[C@@H](CCCNC(=N)N[N+](=O)[O-])C(=O)N[C@@H](CC(C)C)B2O[C@@H]3C[C@@H]4C[C@@H](C4(C)C)[C@]3(C)O2)cc1 [D.1.4, 4-Butylbenzamide,N-[(1S)-1-[[[(1R)-1-[(3aS,4S,6S,7aR)-hexahydro-3a,5,5-trimethyl-4,6-methano-1,3,2-benzodioxaborol-2-yl]-3-methylbutyl]amino]carbonyl]-4-[[imino(nitroamino)methyl]amino]butyl]] |
| < 10 | 2000 to 10000 | Cc1ccc(C)c(CC(=O)N[C@@H](CCCNC(=N)N[N+](=O)[O-])C(=O)N[C@@H](CC(C)C)B(O)O)c1 [E.2.56, Boronic acid, [(1R)-1-[[(2S)-5-[[imino(nitroamino)methyl]amino]-2-[[2-(2,5-dimethylphenyl)acetyl]amino]-1-oxopentyl]amino]-3-methylbutyl]] |
| < 10 | < 200 | CCCCc1ccc(C(=O)N[C@@H](CNC(=O)Cc2ccc(OC)c(OC)c2)C(=O)N[C@@H](CC(C)C)B2O[C@@H]3C[C@@H]4C[C@@H](C4(C)C)[C@]3(C)O2)cc1 [D.24.14] |
| < 10 | < 200 | CCCCCCCOc1ccc(NC(=O)N[C@@H](CCCNC(=N)N[N+](=O)[O-])C(=O)N[C@@H](CC(C)C)B2O[C@@H]3C[C@@H]4C[C@@H](C4(C)C)[C@]3(C)O2)cc1 [D.6.9, N-[(1S)-1-[[[(1R)-1-[(3aS,4S,6S,7aR)-hexahydro-3a,5,5-trimethyl-4,6-methano-1,3,2-benzodioxaborol-2-yl]-3-methylbutyl]amino]carbonyl]-4-[[imino(nitroamino)methyl]amino]butyl]-N′-(4-heptyloxylphenyl) urea] |
| < 10 | 2000 to 10000 | CC(C)C[C@H](NC(=O)[C@H](CCCNC(=N)N[N+](=O)[O-])NC(=O)CC12CC3CC(CC(C3)C1)C2)B(O)O [E.2.34] |
| < 100 | < 200 | CCCCc1ccc(C(=O)N[C@H](CNC(=O)c2ccc(C)cc2)C(=O)N[C@@H](CC(C)C)B(O)O)cc1 [E.5.41] |
